Experiments:
[1] = target: T1, human recombinant PTP1B (hPTP1B) (Homo sapiens, UniProt P18031); experiment: Inhibition of tri-phosphorylated insulin receptor dodecaphosphopeptide dephosphorylation by hPTP1B (malachite green phosphate detection); type: biochemical
T1 construct: made in house
T1 sequence (P18031 1-435): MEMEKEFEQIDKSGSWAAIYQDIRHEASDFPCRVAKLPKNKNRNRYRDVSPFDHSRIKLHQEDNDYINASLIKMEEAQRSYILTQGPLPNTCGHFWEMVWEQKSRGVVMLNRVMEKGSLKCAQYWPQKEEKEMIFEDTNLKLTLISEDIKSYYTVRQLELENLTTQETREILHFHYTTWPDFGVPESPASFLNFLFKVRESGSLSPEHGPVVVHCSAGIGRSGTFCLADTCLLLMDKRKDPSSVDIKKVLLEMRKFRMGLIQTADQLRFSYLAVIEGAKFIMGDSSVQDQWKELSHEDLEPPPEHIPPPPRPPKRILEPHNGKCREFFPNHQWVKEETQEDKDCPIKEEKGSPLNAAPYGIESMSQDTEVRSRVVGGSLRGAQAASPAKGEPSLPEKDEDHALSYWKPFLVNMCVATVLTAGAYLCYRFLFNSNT

Compound | inhibition at 1 µM ([1]; compound at 1.0 μM, percent of phosphatase control) | melting point | IC50 ([1]; recombinant PTP1B, insulin receptor 1142-1153 triphosphopeptide substrate, 37° C., 30 min, pH 7.4)
Cc1sc(Cc2ccc(Br)cc2)c(C(=O)c2ccc(OS(=O)(=O)c3cnn(C)c3)c(C3CCCC3)c2)c1C [Example 27, 1-Methyl-1H-pyrazole-4-sulfonic acid 4-[2-(4-bromo-benzyl)-4,5-dimethyl-thiophene-3-carbonyl]-2-cyclopentyl-phenyl ester] | 22.7% | 55 to 60 °C | 
CCCCc1oc2ccccc2c1Cc1ccc(OS(=O)(=O)c2ccc(C(=O)O)c(O)c2)cc1 [Example 28, 4-[4-(2-Butyl-benzofuran-3-ylmethyl)-phenoxysulfonyl]-2-hydroxy-benzoic acid] |  | 135 to 138 °C | 577 nM

— patent US6683107B2, “Furans, benzofurans, and thiophenes useful in the treatment of insulin resistance and hyperglycemia” (Wyeth, priority 1998, dated 2004)
